Earlier results on one molecule are cited in US8575191B2, “Methods for treatment of non-small cell lung cancer” (priority 2010, dated 2013).

Molecules are shown by their SMILES.

In the data set the test system is NSCLC.

Turning to `C#Cc1cccc(Nc2ncnc3cc(OCCOC)c(OCCOC)cc23)c1` [erlotinib], for the setting “adenocarcinoma”, the “survival HR compared to placebo” value was 0.8. Further, the response rate (unselected NSCLC patients previously treated with chemotherapy) is 9%.
